Results on four compounds are retold here after paper PMC10236072, “Microwave-assisted synthesis of [^52Mn]Mn-porphyrins: Applications in cell and liposome radiolabelling” (Nuclear Medicine and Biology, 2022).

Read-outs that look alike come from different tables or passages of the source.

The nature of data set [1]: Log P (1-octanol/water partition, gamma counting). The following applies: 1-octanol/H2O, mean ± SD, n = 3 (free 52Mn n = 2). Type of data set: physicochemical. How it is done: An aliquot (500 μL) of each layer was then added to an Eppendorf. An aliquot (20 μL) of the [^52Mn]Mn-porphyrin reaction mixture was then added to the two layers and vortexed for 5 min. After mixing, the suspension was […] briefly for 10 s to settle the layers, and 200 μL of each layer was extracted. The octanol and H2O layers were then gamma counted (Wallac CompuGamma) and the Log P was calculated as below: LogP=LogActivityCPMin octanol layer/ActivityCPMinwaterlayer

Details of data set [2]: method as in PMID 3821476. The note with it: up to 9 days, UV-spectroscopy; cited from earlier work.
For the next data set, the system named is various cell lines. The note with it: cited from earlier work.
Data set [3] is described as follows: Solubility in aqueous and organic solvents. It is filed as physicochemical.

For `[Cl][52Mn][Cl]` [Buffered ^52Mn, [^52Mn]MnCl2], in data set [1], the “Log P value” is −2.4 ± 0.7. Turning to `O=S(=O)([O-])c1ccc(-c2c3nc(c(-c4ccc(S(=O)(=O)[O-])cc4)c4ccc([n-]4)c(-c4ccc(S(=O)(=O)[O-])cc4)c4ccc([n-]4)c(-c4ccc(S(=O)(=O)[O-])cc4)c4nc2C=C4)C=C3)cc1.[Mn+3]` [Mn-(5)], the “stability in human plasma” value in data set [2] was “stable”. In the case of `[89Zr+4].[O-]c1cccc2cccnc12.[O-]c1cccc2cccnc12.[O-]c1cccc2cccnc12.[O-]c1cccc2cccnc12` [[^89Zr]Zr-oxine], the cellular retention result with various cell lines (later timepoints (5–7 days)) was “at least 30%”; in the data set on various cell lines (various cell lines, after 24 h) it was > 65%. On to `CNS(=O)(=O)c1ccc(F)c(-c2c3nc(c(-c4c(F)ccc(S(=O)(=O)NC)c4F)c4ccc([nH]4)c(-c4c(F)ccc(S(=O)(=O)NC)c4F)c4nc(c(-c5c(F)ccc(S(=O)(=O)NC)c5F)c5ccc2[nH]5)C=C4)C=C3)c1F` [porphyrin 2], for which the solubility result in data set [3] was “favourable solubility in aqueous and organic solvents”; in data set [3] (listed as Porphyrin 2), “favourable solubility in both aqueous and organic solvents”.
